Measured values taken from US6624149B2, “Method for nucleic acid transfection of cells” (Genteric, Inc., priority 2000, dated 2003).
“And” between values parts separate entries of the source, which are not always exact repeats. Identical values can stand only once.

Key:
mouse lung = test: Intra-tracheal transfection of mouse lung, luciferase assay; assay type: in vivo; details: 3.6 mM zinc chloride
Protocol: Male BALB/c mice (specific pathogen free, Charles River Laboratories; 20-21 g) were used in the transfection experiments. Anesthesia was provided for all invasive procedures; animals were terminated by intraperitoneal administration of pentobarbital according to standard protocols. Neck dissections were performed on anesthetized mice using a one centimeter incision through the skin of the anterior neck. […] For comparison, a free nucleic acid solution (150 μl containing 512 μg of DNA) was prepared in sterile water and delivered in a similar manner. After injection, the point of incision was repaired using staples. The mice were terminated within 48 hours after treatment. […] An experiment was conducted to determine if transition metals promote in vivo transfection of the mouse lung. […] The final zinc chloride concentration of this mixture was 3.6 mM. […] For comparison, 150 μl of a DNA solution (354 μg DNA) was also administered to intratracheally to the lungs of four mice. At 48 hours post administration, the tracheal/lung block was dissected and assayed for luciferase specific activity as described above.

NIH 3T3 cells = test: Cationic liposome-mediated transfection of cultured cells, luciferase assay; assay type: cell-based, murine; details: for Luciferase activity, Average / Luciferase activity, Trial 1 to Trial 4: 48 hours; for Luciferase activity, Trial 1 to Trial 4: individual trials
Protocol: In one embodiment, an appropriate mass of cationic lipid and the neutral lipid dioleoylphosphatidylethanolamine (DOPE) was added as solutions in chloroform to 1.9 mL sample vials to yield the desired molar ratio of cationic lipid:DOPE. The chloroform was removed via rotary evaporation at 37° C. The resulting thin lipid films were placed under vacuum overnight to insure that all traces of solvent have been removed. The lipid mixture was resuspended in 1 mL sterile water at 25° C. until the film is hydrated, and then vortex mixed to afford an emulsion. For the in vitro experiments, these emulsions were formulated as a cationic lipid concentration of 1 mM. For the in vivo experiments, the emulsions were formulated at a cationic lipid concentration of 3 mM.
NIH 3T3 cells were obtained from ATCC (CRL 1658), cultured in Dulbecco's Modified Eagle's Medium with ten percent calf serum, and plated on standard 24 well tissue culture plates 24 hours prior to transfection. Cells were approximately eighty percent confluent at the time of transfection.
NIH 3T3 cells were plated onto 24 well tissue culture plates as described in section 6.1.10. The growth media was removed via aspiration and the cells were washed once with 0.5 mL PBS/well. The liposome/transition metal/nucleic acid solutions were formed through sequential addition of appropriate amounts of DMEM (without serum), the liposome solution (1:1 N,N-[Bis(2-hydroxyethyl)]-N-methyl-N-[2,3-bis(tetradecanoyloxy)propyl] ammonium chloride (DMDHP):DOPE, zinc chloride, and the plasmid DNA pCMV.FOX.Luc.2. The amount of liposome solution used depended on the desired cationic lipid to DNA phosphate ratio. The addition of these substances was followed by thorough vortex mixing and incubation for 15 minutes at room temperature. A 200 microliter aliquot of the resultant transfection complex was added to each well (1 microgram DNA/well, n=4) and the cells were incubated for 4 hours, at 37° C. At this time, 500 microliters of DMEM+10% calf serum/well was added and the cells cultured for approximately 48 hours prior to lysis and analysis. The sample transfections were subsequently repeated a minimum of three times prior to lysis and analysis.
The presently claimed invention describes a new method using a combination of cationic lipid, transition metal enhancer and a nucleic acid of interest for gene delivery. The present invention provides a method that may enhance gene expression by improving the efficiency of gene delivery. This change in gene expression can be quantitated using various assays, such as the luciferase assay. de Wet et al., Molec. Cell Biol. 7:725, 1987. In in vitro experiments described herein in which a cationic lipid/transition metal enhancer/nucleic acid complex was used, the cells were lysed, using a lysis buffer, 48 hours post administration of the pCMV.FOX.Luc-2 containing solution. The lysis buffer contained 100 mM K2PO4 pH 7.0, 1 mM dithiothreitol, and 1% Triton X-100. A 25 μl aliquot of the lysate was analyzed for luciferase activity (de Wet et al., Molec. Cell Biol. 7:725, 1987) using a Monolight 2010 luminometer (Analytical Luminescence Laboratories). Accordingly, luciferase light emissions from each aliquot of the lysis homogenate were measured over a ten second period. Activity was expressed as relative light units, values collectively representing the assay conditions, luciferase concentration, luminometer photomultiplier tube sensitivity and background. Using well known techniques, the luciferase light units may be converted, for example, to picograms of luciferase protein. See, e.g., Felgner et al., U.S. Pat. No. 5,580,899 at Example 13.
To perform this study, cationic lipid/nucleic acid/zinc mixtures were prepared by mixing appropriate amounts of serum-free DMEM, cationic liposomes, zinc chloride and pCMV.FOX.Luc.2 plasmid DNA in a polystyrene tube. […]

[1] = charge ratio 0.5, ZnCl2 1000 μM
[2] = charge ratio 0.75, ZnCl2 0.1 μM
[3] = charge ratio 0.75, ZnCl2 100 μM
[4] = charge ratio 0.75, ZnCl2 1000 μM

[Cl-].[Cl-].[Zn+2] [ZnCl2, zinc chloride]
Improvement of transfection activity relative to the "free" DNA solution (mouse lung): 5 fold
Luciferase activity, Average (NIH 3T3 cells; charge ratio 0.5, ZnCl2 0.1 μM): 357320 relative light units
Luciferase activity, Average (NIH 3T3 cells; charge ratio 0.5, ZnCl2 1 μM): 289649.8 relative light units
Luciferase activity, Average (NIH 3T3 cells; charge ratio 0.5, ZnCl2 10 μM): 296498.3 relative light units
Luciferase activity, Average (NIH 3T3 cells; charge ratio 0.5, ZnCl2 100 μM): 690512.3 relative light units
Luciferase activity, Average (NIH 3T3 cells; [1]): 44053.75 relative light units
Luciferase activity, Average (NIH 3T3 cells; [2]): 528118.8 relative light units
Luciferase activity, Average (NIH 3T3 cells; charge ratio 0.75, ZnCl2 1 μM): 141950 relative light units
Luciferase activity, Average (NIH 3T3 cells; charge ratio 0.75, ZnCl2 10 μM): 397689.3 relative light units
Luciferase activity, Average (NIH 3T3 cells; [3]): 334007.5 relative light units
Luciferase activity, Average (NIH 3T3 cells; [4]): 298625.5 relative light units
Luciferase activity, Average (NIH 3T3 cells; charge ratio 1, ZnCl2 0.1 μM): 931446.8 relative light units
Luciferase activity, Average (NIH 3T3 cells; charge ratio 1, ZnCl2 1 μM): 835699.8 relative light units
Luciferase activity, Average (NIH 3T3 cells; charge ratio 1, ZnCl2 10 μM): 1366067 relative light units
Luciferase activity, Average (NIH 3T3 cells; charge ratio 1, ZnCl2 100 μM): 359188.5 relative light units
Luciferase activity, Average (NIH 3T3 cells; charge ratio 1, ZnCl2 1000 μM): 414392 relative light units
Luciferase activity, Average (NIH 3T3 cells; charge ratio 2, ZnCl2 0.1 μM): 677663.5 relative light units
Luciferase activity, Average (NIH 3T3 cells; charge ratio 2, ZnCl2 1 μM): 747069.5 relative light units
Luciferase activity, Average (NIH 3T3 cells; charge ratio 2, ZnCl2 10 μM): 1215879 relative light units
Luciferase activity, Average (NIH 3T3 cells; charge ratio 2, ZnCl2 100 μM): 827479.8 relative light units
Luciferase activity, Average (NIH 3T3 cells; charge ratio 2, ZnCl2 1000 μM): 109543.8 relative light units
enhancement of in vitro transfection by added zinc (NIH 3T3 cells; depending on the cationic lipid to nucleic acid charge ratio): two to forty
Luciferase activity, Trial 1 to Trial 4 (NIH 3T3 cells; charge ratio 0.5, ZnCl2 0.1 μM): 487868 relative light units and 426369 relative light units and 256897 relative light units and 258146 relative light units
Luciferase activity, Trial 1 to Trial 4 (NIH 3T3 cells; charge ratio 0.5, ZnCl2 1 μM): 385049 relative light units and 200471 relative light units and 304108 relative light units and 268971 relative light units
Luciferase activity, Trial 1 to Trial 4 (NIH 3T3 cells; charge ratio 0.5, ZnCl2 10 μM): 325001 relative light units and 323001 relative light units and 250110 relative light units and 287881 relative light units
Luciferase activity, Trial 1 to Trial 4 (NIH 3T3 cells; charge ratio 0.5, ZnCl2 100 μM): 351939 relative light units and 252969 relative light units and 294018 relative light units and 1863123 relative light units
Luciferase activity, Trial 1 to Trial 4 (NIH 3T3 cells; [1]): 43835 relative light units and 40236 relative light units and 59395 relative light units and 32749 relative light units
Luciferase activity, Trial 1 to Trial 4 (NIH 3T3 cells; [2]): 613179 relative light units and 556656 relative light units and 437658 relative light units and 504982 relative light units
Luciferase activity, Trial 1 to Trial 4 (NIH 3T3 cells; charge ratio 0.75, ZnCl2 1 μM): 127339 relative light units and 236302 relative light units and 123913 relative light units and 80246 relative light units
Luciferase activity, Trial 1 to Trial 4 (NIH 3T3 cells; charge ratio 0.75, ZnCl2 10 μM): 455299 relative light units and 465986 relative light units and 362168 relative light units and 307304 relative light units
Luciferase activity, Trial 1 to Trial 4 (NIH 3T3 cells; [3]): 404983 relative light units and 351094 relative light units and 358591 relative light units and 221362 relative light units
Luciferase activity, Trial 1 to Trial 4 (NIH 3T3 cells; [4]): 335343 relative light units and 257292 relative light units and 374511 relative light units and 227356 relative light units
Luciferase activity, Trial 1 to Trial 4 (NIH 3T3 cells; charge ratio 1, ZnCl2 0.1 μM): 901184 relative light units and 862221 relative light units and 1113520 relative light units and 848862 relative light units
Luciferase activity, Trial 1 to Trial 4 (NIH 3T3 cells; charge ratio 1, ZnCl2 1 μM): 942667 relative light units and 864670 relative light units and 799992 relative light units and 735470 relative light units
Luciferase activity, Trial 1 to Trial 4 (NIH 3T3 cells; charge ratio 1, ZnCl2 10 μM): 2145687 relative light units and 1433861 relative light units and 1202748 relative light units and 681970 relative light units
Luciferase activity, Trial 1 to Trial 4 (NIH 3T3 cells; charge ratio 1, ZnCl2 100 μM): 262768 relative light units and 379927 relative light units and 447492 relative light units and 346567 relative light units
Luciferase activity, Trial 1 to Trial 4 (NIH 3T3 cells; charge ratio 1, ZnCl2 1000 μM): 437998 relative light units and 443459 relative light units and 502263 relative light units and 273848 relative light units
Luciferase activity, Trial 1 to Trial 4 (NIH 3T3 cells; charge ratio 2, ZnCl2 0.1 μM): 596911 relative light units and 685311 relative light units and 818392 relative light units and 610040 relative light units
Luciferase activity, Trial 1 to Trial 4 (NIH 3T3 cells; charge ratio 2, ZnCl2 1 μM): 661803 relative light units and 814409 relative light units and 754168 relative light units and 757898 relative light units
Luciferase activity, Trial 1 to Trial 4 (NIH 3T3 cells; charge ratio 2, ZnCl2 10 μM): 1498720 relative light units and 1238992 relative light units and 1207690 relative light units and 918114 relative light units
Luciferase activity, Trial 1 to Trial 4 (NIH 3T3 cells; charge ratio 2, ZnCl2 100 μM): 768327 relative light units and 880621 relative light units and 941720 relative light units and 719251 relative light units
Luciferase activity, Trial 1 to Trial 4 (NIH 3T3 cells; charge ratio 2, ZnCl2 1000 μM): 199493 relative light units and 48657 relative light units and 189902 relative light units and 123 relative light units
